Read-outs that look alike come from different tables or passages of the source.
Experiments:
SARS-CoV-2 [1] = conditions: A549 + ACE2 cells, pretreatment; cited from earlier work
SARS-CoV-2 PL^pro = conditions: in vitro SARS-CoV-2 PL^pro; cited from earlier work
SARS-CoV-2 [2] = conditions: SARS-CoV-2-infected mice; cited from earlier work
in vitro = conditions: human, CC50, U2-OS ACE2 GFP cells
[3] = system: SARS-CoV-2 strain BetaCoV/France/IDF0372/2020; experiment: microbe, parasite or virus in culture; conditions: Severe acute respiratory syndrome coronavirus 2, U2OS
SARS-CoV-2 [4] = conditions: cited from earlier work

SMILES	IC50 (SARS-CoV-2 [1]) [nM]	IC50 (SARS-CoV-2 PL^pro) [nM]	viral load in the lungs (SARS-CoV-2 [2])	CC50 (in vitro) [nM]	IC50 [3] [nM]	IC50 (SARS-CoV-2 [4]) [nM]
COc1ccc2nc3cc(Cl)ccc3c(Nc3cc(CN4CCCC4)c(O)c(CN4CCCC4)c3)c2n1 [7g, pyronaridine]	230	1800	reduces viral load	4700	420	
CCN(CC)CCCC(C)Nc1c2ccc(Cl)cc2nc2ccc(OC)cc12 (centres unmarked) [quinacrine]	190				2570	
CCC(CC)COC(=O)[C@H](C)N[P@](=O)(OC[C@H]1O[C@@](C#N)(c2ccc3c(N)ncnn23)[C@H](O)[C@@H]1O)Oc1ccccc1 [remdesivir]						20 to 50

Source: article PMC10620940 (ACS Omega, 2023)
